# Results from US7345065B2, “Methods and compositions for alleviating pain” (Allergan, Inc., priority 2002, dated 2008).
# Key:
# [1] = tested on: Sprague Dawley rats, normal and sensitized; assay: Rat model of irritable bowel syndrome (chronic visceral hypersensitivity), EMG response to colorectal distension; assay type: in vivo
# Excerpt: A well-accepted model of chronic visceral hypersensitivity is described in Al-Chaer et al., Gastroenterology 119:1276-85 (2000). In brief, colons of neonatal male Sprague Dawley rats were sensitized by repeated inflation of a colonic balloon on postnatal days 8 to 21, with colonic balloons inflated to pressures ranging from 20-80 mm Hg. Three months later, the abdominal withdrawal reflex (AWR) response of the adult rats to graded colorectal distension (CRD) was quantified by electromyography (EMG) recording from the abdominal wall muscle. […] Each level of CRD was administered for 20 seconds every four minutes and repeated for a total of five times.
# Groups of 8-10 normal and sensitized adult Sprague Dawley rats (approximately 3 months old) were implanted with subcutaneous minipumps to deliver either 50% DMSO or Compound 8 in 50% DMSO at a dose of 100 ug/kg/hr over a period of 7 days. The abdominal withdrawal reflex to a graded series of colorectal distensions (20, 40, 60, 80 mm Hg) was measured by abdominal EMG recording prior to pump implantation, on days 2 and 5 of the subcutaneous infusion, and 2 days, 1 week, 2 weeks, and 4 weeks after the pumps were removed.
# Chung model rats = assay: Chung rat nerve ligation model, tactile allodynia reversal (Von Frey); assay type: in vivo
# Protocol: The Chung rat nerve ligation model is a well accepted model of peripheral neuropathic pain. In the Chung model, partial ligation of left spinal nerves L-5 and L-6 produces a long-lasting hypersensitivity to light touch on the affected left foot. The hypersensitivity is similar to pain experienced by humans with the neuropathic condition of causalgia (Kim and Chung, Pain 50:355-363 (1992)).
# Chung rat surgeries of about 20 minutes duration were performed essentially as follows. Male Sprague-Dawley rats weighing 100 to 120 grams were anesthetized with isofluorane. After shaving and preparing the surgical site with betadine, an incision was made from thoracic vertebra XIII down toward the sacrum, and muscle separated from spinal vertebra (left side) at the L4-S2 levels. The L6 vertebra were located, and the transverse process carefully removed with a small rongeur to visually identify the L4-L6 spinal nerves. L5 and L6 spinal nerves were isolated and tightly ligated with 6-0 silk thread; the wound was sutured after complete hemostasis was confirmed. A small amount of antibiotic ointment was applied to the incised area before transferring the animals to a plastic recovery cage under a regulated heat-temperature lamp. Animals were not treated with any topical or local anesthetics post-operatively.
# Assessment of pain in Chung model rats was performed by applying a light tactile stimulus (Von Frey hair) to the affected surgical paw as follows. A 50% pain threshold was established by applying the Von Frey hair in an up-and-down manner to the plantar surface of the surgical paw with just enough force to bend them. A positive response was recorded if the paw was withdrawn sharply. The 50% paw withdrawal threshold was determined using the method of Dixon et al., Ann. Rev. Pharmacol. Toxicol. 20:441-462 (1980). The post-drug threshold was compared to the pre-drug threshold, and the precent reversal of tactile sensitivity calculated based on a normal threshold of 15.1 grams. The results were expressed as % allodynia reversal, reflecting the percentage reversal of pain threshold relative to a normal rat (100%).
# Chung surgeries were performed, and pain assessed as described above. Drugs administered via osmotic minipump were delivered as follows. ALZET (Cupertino, Calif.) minipumps (Model #1007D) were implanted subcutaneously on the rats' back between the shoulder blades. Pumps were filled with test solution prior to surgery, which was performed with aseptic procedures and sterilized surgical instruments. After anesthetization with isoflorane and midline incision between the shoulder blades through the muscle, a subcutaneous pocket was exposed. The minipump was inserted into the exposed pocket, before stapling the wounds closed and allowing animals to recover under a warming light.
# ALZET osmotic minipumps (model 1007D) hold a total volume of 100 μl and delivered drug at the set rat of 0.5 μl per hour the indicated time period. Drugs were administered at the indicated rate, typically 100 μg/hr/kg, dissolved in 50% DMSO, with the concentration of drug in the pump varied depending on animal weight. […]
# [2] = tested on: α-2B heterozygous (−/+) and homozygous (−/−) knockout mice; assay: Sulprostone sensitized pain (allodynia), α-2B knockout mice; assay type: in vivo, mouse; conditions: intraperitoneal; heterozygous and homozygous α-2B knockout; clonidine 500 ug/kg, Compound 3 100 ug/kg
# [3] = Plasma concentration by LC-MS/MS during and after minipump dosing; assay type: in vivo, rat; conditions: 0.1 mg/kg/hour minipump for seven days
# Protocol: To determine whether the persistent reversal of allodynia was due to the continued presence of drug in the animals, rats were treated for seven days using a subcutaneous osmotic minipump with 0.1 mg/kg/hour Compound 8. Plasma concentrations of Compound 8 were sampled on days 3, 6, 8, 10 and 14 following pump insertion and determined by liquid chromatography-mass spectrometry/mass spectrometry (LC-MS/MS).
# Bennett model rats = assay: Bennett partial sciatic nerve ligation model, cold allodynia; assay type: in vivo, rat; conditions: osmotic minipump 0.1 mg/hr/kg for four days; during treatment and more than three weeks following pump removal
# Protocol: The α-2B/C selective agonist Compound 8 was tested in a second rat nerve injury model of neuropathic pain, the Bennett partial sciatic nerve ligation model. This rat model produces a peripheral mononeuropathy with disorders of pain sensation similar to those seen in man (Bennett and Xie, Pain 33:87-107 (1988)). In the Bennett model, nerve injury is created by loosely tying constrictive ligatures around the sciatic nerve, causing degeneration of nerve distal to the constriction. Allodynia and hyperalgesia are produced by the constriction injury in addition to spontaneous pain (Bennett and Xie, supra, 1988). In particular, cold allodynia, the sensation of pain from cold stimuli, is one manifestation of altered pain sensation: Bennett model animals frequently lift the paw of the surgical limb off the cold surface, in contrast to control animals.
# Bennett surgeries of about 20 minute duration were performed as follows. […]
# Chronic drug administration was achieved via an osmotic minipump, which was implanted subcutaneously on the back of the rat one week after the Bennett surgery as described above. […] To assess response to thermal stimuli, rats were placed under a clear plastic chamber (18 cm×29 cm×12.5 cm) on a chilled (0-4° C.) metal floor, which is not noxious to a normal animal, and the time that the surgical paw was raised off of the cold floor recorded over a 5 minute period. […]
# α-2A = target: T1, α-2A (Homo sapiens, UniProt P08913); assay: Ki at α-2A; assay type: binding
# T1 sequence (P08913 1-465): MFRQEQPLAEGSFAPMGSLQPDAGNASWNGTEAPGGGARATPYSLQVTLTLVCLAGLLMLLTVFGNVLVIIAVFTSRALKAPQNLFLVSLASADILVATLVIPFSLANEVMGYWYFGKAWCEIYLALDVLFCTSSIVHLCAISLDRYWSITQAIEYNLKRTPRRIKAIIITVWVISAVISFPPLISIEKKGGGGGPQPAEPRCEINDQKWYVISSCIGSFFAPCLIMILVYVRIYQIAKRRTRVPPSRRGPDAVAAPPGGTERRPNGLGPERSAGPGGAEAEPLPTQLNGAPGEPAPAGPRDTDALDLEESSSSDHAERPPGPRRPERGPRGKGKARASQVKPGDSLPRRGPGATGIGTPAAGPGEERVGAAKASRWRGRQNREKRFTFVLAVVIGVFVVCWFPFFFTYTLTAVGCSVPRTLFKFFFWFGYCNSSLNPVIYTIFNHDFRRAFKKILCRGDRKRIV
# rat α-2B (RNG gene) = target: T2, rat α-2B (RNG gene) (Rattus norvegicus, UniProt P19328); assay: RSAT assay, α-2B receptor; assay type: cell-based
# T2 construct: expressed in transfected cells; host or cells: NIH-3T3
# T2 sequence (P19328 1-453): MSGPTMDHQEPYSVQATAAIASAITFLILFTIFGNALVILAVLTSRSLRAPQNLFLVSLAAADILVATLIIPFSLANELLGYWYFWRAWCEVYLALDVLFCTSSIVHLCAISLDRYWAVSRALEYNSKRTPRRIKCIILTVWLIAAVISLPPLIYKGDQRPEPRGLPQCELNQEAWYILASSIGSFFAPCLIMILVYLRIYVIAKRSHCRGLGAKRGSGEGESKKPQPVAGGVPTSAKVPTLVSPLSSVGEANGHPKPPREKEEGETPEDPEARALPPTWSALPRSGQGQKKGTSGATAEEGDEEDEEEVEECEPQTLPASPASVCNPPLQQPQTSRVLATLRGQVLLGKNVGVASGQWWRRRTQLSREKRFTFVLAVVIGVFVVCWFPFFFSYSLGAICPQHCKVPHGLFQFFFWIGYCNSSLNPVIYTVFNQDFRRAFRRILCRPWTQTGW
# Excerpt: Agonist and antagonist activity, including selectivity and specificity, can be characterized using any of a variety of routine assays, including, without limitation, Receptor Selection and Amplification Technology (RSAT) assays (Messier et al., Pharmacol. Toxicol. 76:308-11 (1995); Conklin et al., Nature 363:274-6 (1993)); cyclic AMP assays (Shimizu et al., J. Neurochem. 16:1609-1619 (1969)); and cytosensor microphysiometry assays (Neve et al., J. Biol. Chem. 267:25748-25753 (1992)). Such assays generally are performed using cells that naturally express only a single α-adrenergic receptor subtype, or using transfected cells expressing a single recombinant α-adrenergic receptor subtype. The adrenergic receptor can be a human receptor or homolog thereof having a similar pharmacology. As disclosed herein, RSAT assays were performed using cells transiently transfected with human α-2A (c10 gene); rat α-2B (RNG gene); human α-2C (c4 gene); bovine α-1A; hamster α-1B; and rat α-1D.
# The RSAT assay measures receptor-mediated loss of contact inhibition resulting in selective proliferation of receptor-containing cells in a mixed population of confluent cells. The increase in cell number is assessed with an appropriate detectable marker gene such as β-galactosidase, if desired, in a high throughput or ultra high throughput assay format. Receptors that activate the G protein, Gq, elicit the proliferative response. α-adrenergic receptors, which normally couple to Gi, activate the RSAT response when coexpressed with a hybrid Gq protein containing a Gi receptor recognition domain, designated Gq/i5.
# As an example, an RSAT assay can be performed essentially as follows. NIH-3T3 cells are plated at a density of 2×10^6 cells in 15 cm dishes and maintained in Dulbecco's modified Eagle's medium supplemented with 10% calf serum. One day later, cells are cotransfected by calcium phosphate precipitation with mammalian expression plasmids encoding p-SV-β-galactosidase (5-10 μg), receptor (1-2 μg) and G protein (1-2 μg). Carrier DNA, for example 40 μg salmon sperm DNA, also can be included to increase transfection efficiency. Fresh media is added on the following day; one to two days later, cells are harvested and frozen in 50 assay aliquots. Transfected cells are thawed, and 100 μl of cells added to 100 μl aliquots of compound to be tested, with various concentrations assayed in triplicate, for example, in 96-well plates. Incubation continues for 72 to 96 hours at 37°. After washing with phosphate-buffered saline, β-galactosidase activity is determined by adding 200 μl of chromogenic substrate (3.5 mM O-nitrophenyl-β-D-galactopyranoside/0.5% NP-40 in phosphate buffered saline), incubating overnight at 30°, and measuring optical density at 420 nm. The absorbancy is a measure of enzyme activity, which depends on cell number and reflects receptor-mediated cell proliferation. The EC50 and maximal effect (efficacy) of each drug at each receptor is determined.
# [4] = subcutaneous osmotic minipump 0.1 mg/kg/hour, seven days
Structure (SMILES),"EMG response, non-sensitized control rats ([1]; 100 ug/kg/hr subcutaneous minipump, 7 days)","pain (EMG intensity) in sensitized rats after treatment ([1]; 100 ug/kg/hr subcutaneous minipump, 7 days, CRD 20-80 mm Hg)","increased EMG response in sensitized rats ([1]; 100 ug/kg/hr subcutaneous minipump, 7 days, during and following treatment)",return of colorectal allodynia and hyperalgesia ([1]; 4 weeks following cessation of drug treatment),allodynia during follow-up testing (Chung model rats; after oral 0.3 mg/kg three times a day for three days),allodynia on the morning of day 4 (Chung model rats; oral 0.3 mg/kg three times a day for three days),"allodynia prior to the first dose of the morning, days 2 and 3 (Chung model rats; oral 0.3 mg/kg three times a day for three days, about 14 hours after the last dose)","reversal of allodynia (Chung model rats; oral gavage, three doses of 0.3 mg/kg per day for three consecutive days)",allodynia alleviated during the period of drug treatment (Chung model rats; [4]),persistence of analgesic effects after treatment (Chung model rats; [4]),analgesic effect in α-2B knockout mice [2],"plasma drug level, day 10 ([3]; day 10 following pump insertion)","plasma drug level, day 14 ([3]; day 14 following pump insertion)",cold allodynia (Bennett model rats),Ki (α-2A) [nM],efficacy at α-2B relative to brimonidine (rat α-2B (RNG gene))
OCCNC(=S)NCc1cccc(Cl)c1F [Compound 8],did not change significantly from pre-treatment levels,0 to 1.5,completely alleviated,did not return during the time period tested,allodynia did not increase during a more than three week period of follow-up testing,allodynia was dramatically reduced,complete tactile allodynia,70-80%,90-100%,continued for over a month after treatment was concluded,failed to show analgesic activity,minimal drug levels were detected,no drug remained in the plasma,completely alleviated,–,–
c1nc(CC2CCc3sccc3C2)c[nH]1 (stereo not shown) [Compound 13],–,–,–,–,–,–,–,–,–,–,–,–,–,–,~0.08,about 40%
